Measurements from patent US6472526B1, “Imidazole derivatives having an inhibitory activity for farnesyl transferase and process for preparation thereof” (LG Chemical Ltd., priority 1997, dated 2002).

Key:
Ras farnesyl transferase [1] = biological target: T1, Ras farnesyl transferase (Homo sapiens, UniProt P49354+P49356); test: In vitro inhibitory activity for Ras farnesyl transferase, K-Ras substrate; assay type: biochemical
T1 construct: made in house

Ras farnesyl transferase [2] = biological target: T2, Ras farnesyl transferase (Rattus norvegicus, UniProt Q02293+Q04631); test: In vivo (cellular) inhibitory activity for Ras farnesyl transferase, Rat2 cell line which expresses C-Harvey-Ras protein; assay type: cell-based
T2 construct: endogenous in cells; host or cells: Rat2 fibroblasts transformed with H-Ras or with an H-Ras/K-Ras C-terminus fusion
Outline: (§1)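 Transformed Rat2 fibroblasts (H-Ras or H-Ras/K-Ras polybasic-tail fusion) treated with compound in 1% DMSO; after 4 h labelled with [35S]methionine 150 μCi/ml for 20 h. Lysates immunoprecipitated with anti-Ras Y13-259, resolved by 13.5% SDS-PAGE and autoradiography; CIC50 = concentration inhibiting 50% of Ras farnesylation from band intensities.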

Ras farnesyl transferase [3] = biological target: T2, Ras farnesyl transferase; test: In vivo (cellular) inhibitory activity for Ras farnesyl transferase, Rat2 cell line transformed with fused protein of H-Ras substituted with polybasic lysine domain at C-terminus of K-Ras; assay type: cell-based
Outline: as §1

Ras farnesyl transferase [4] = biological target: T1, Ras farnesyl transferase; test: In vitro inhibitory activity for Ras farnesyl transferase, H-Ras substrate; assay type: biochemical
[5] = in vitro farnesyl transferase assay, K-Ras, read-out: K-Ras IC50
[6] = Rat2 cell line expressing C-Harvey-Ras, concentration inhibiting 50% of farnesyl bonding of Ras protein, read-out: H-Ras CIC50
[7] = Rat2 cell line transformed with H-Ras fused with polybasic lysine domain of K-Ras C-terminus, concentration inhibiting 50% of farnesyl bonding, read-out: K-Ras CIC50
[8] = recombinant farnesyl transferase 4.5 nM, Ras substrate protein 1.5 μM, tritium-farnesylpyrophosphate 0.15 μM, 30 minutes at 37° C., read-out: H-Ras IC50

SMILES | IC50 (Ras farnesyl transferase [1]; [5]) | IC50 (Ras farnesyl transferase [2]; [6]) | IC50 (Ras farnesyl transferase [3]; [7]) | IC50 (Ras farnesyl transferase [4]; [8]) | IC50 (Ras farnesyl transferase [1]) | IC50 (Ras farnesyl transferase [2]) | IC50 (Ras farnesyl transferase [3]) | IC50 (Ras farnesyl transferase [4])
O=C(c1ccc(Cl)cc1)c1cn(Cc2c[nH]cn2)cc1-c1cccc2ccccc12 [Compound 56] | 100 to 10000 nM | 1000 to 50000 nM | 10000 to 100000 nM | 40 nM | – | – | – | –
O=C(c1ccc(Cl)cc1Cl)c1cn(Cc2c[nH]cn2)cc1-c1cccc2ccccc12 [Compound 57] | 100 to 10000 nM | 1000 to 50000 nM | 10000 to 100000 nM | 38 nM | – | – | – | –
O=C(c1ccc(F)cc1)c1cn(Cc2c[nH]cn2)cc1-c1cccc2ccccc12 [Compound 58] | 100 to 10000 nM | 1000 to 50000 nM | 10000 to 100000 nM | 25 nM | – | – | – | –
O=C(c1ccc(F)cc1F)c1cn(Cc2c[nH]cn2)cc1-c1cccc2ccccc12 [Compound 59] | 100 to 10000 nM | 1000 to 50000 nM | 10000 to 100000 nM | 570 nM | – | – | – | –
N#Cc1ccc(C(=O)c2cn(Cc3c[nH]cn3)cc2-c2cccc3ccccc23)cc1 [Compound 60] | 100 to 10000 nM | 1000 to 50000 nM | 10000 to 100000 nM | 200 nM | – | – | – | –
CSCc1ccc(C(=O)c2cn(Cc3c[nH]cn3)cc2-c2cccc3ccccc23)cc1 [Compound 61] | 100 to 10000 nM | 1000 to 50000 nM | 10000 to 100000 nM | 740 nM | – | – | – | –
CSCCc1ccc(C(=O)c2cn(Cc3c[nH]cn3)cc2-c2cccc3ccccc23)cc1 [Compound 62] | 100 to 10000 nM | 1000 to 50000 nM | 10000 to 100000 nM | 68 nM | – | – | – | –
CSCCOc1ccc(C(=O)c2cn(Cc3c[nH]cn3)cc2-c2cccc3ccccc23)cc1 [Compound 63] | 100 to 10000 nM | 1000 to 50000 nM | 10000 to 100000 nM | 230 nM | – | – | – | –
CSCc1cccc(C(=O)c2cn(Cc3c[nH]cn3)cc2-c2cccc3ccccc23)c1 [Compound 64] | 100 to 10000 nM | 1000 to 50000 nM | 10000 to 100000 nM | 160 nM | – | – | – | –
O=C(c1cccc(-c2ccccc2)c1)c1cn(Cc2c[nH]cn2)cc1-c1cccc2ccccc12 [Compound 65] | 100 to 10000 nM | 1000 to 50000 nM | 10000 to 100000 nM | 420 nM | – | – | – | –
O=C(c1ccc(-c2ccccc2)cc1)c1cn(Cc2c[nH]cn2)cc1-c1cccc2ccccc12 [Compound 66] | 100 to 10000 nM | 1000 to 50000 nM | 10000 to 100000 nM | 120 nM | – | – | – | –
O=C(c1ccc(Oc2ccccc2)cc1)c1cn(Cc2c[nH]cn2)cc1-c1cccc2ccccc12 [Compound 67] | 100 to 10000 nM | 3000 nM | > 50000 nM | 20 nM | – | – | – | –
O=C(c1ccc(Cc2ccccc2)cc1)c1cn(Cc2c[nH]cn2)cc1-c1cccc2ccccc12 [Compound 68] | 100 to 10000 nM | 1000 to 50000 nM | 10000 to 100000 nM | 120 nM | – | – | – | –
O=C(c1cn(Cc2c[nH]cn2)cc1-c1cccc2ccccc12)c1cccc2ccccc12 [Compound 69] | – | – | – | – | 100 to 10000 nM | 1000 to 50000 nM | 10000 to 100000 nM | 550 nM
Cc1ccc(C(=O)c2cn(Cc3c[nH]cn3)cc2-c2cn(C)c3ccccc23)cc1 [Compound 70] | 100 to 10000 nM | 1000 to 50000 nM | 10000 to 100000 nM | 210 nM | – | – | – | –
CCCCc1c(-c2cccc3ccccc23)c(C(=O)c2ccc(Cl)cc2Cl)cn1Cc1c[nH]cn1 [Compound 71] | 100 to 10000 nM | 1000 to 50000 nM | 10000 to 100000 nM | 120 nM | – | – | – | –

SMILES | IC50 (Ras farnesyl transferase [1]; [5]) | IC50 (Ras farnesyl transferase [2]; [6]) | IC50 (Ras farnesyl transferase [3]; [7]) | IC50 (Ras farnesyl transferase [4]; [8]) | IC50 (Ras farnesyl transferase [1]) | IC50 (Ras farnesyl transferase [2]) | IC50 (Ras farnesyl transferase [3]) | IC50 (Ras farnesyl transferase [4])
O=C(c1ccc(Cl)cc1Cl)c1cn(Cc2c[nH]cn2)c(Cc2ccccc2)c1-c1cccc2ccccc12 [Compound 72] | 100 to 10000 nM | 1000 to 50000 nM | 10000 to 100000 nM | 50 nM | – | – | – | –
N#Cc1ccc(Cn2cncc2Cn2cc(C(=O)c3cccs3)c(-c3cccc4ccccc34)c2)cc1 [Compound 73, 1-[1-(4-Cyanobenzyl)-1H-imidazol-5-yl]methyl-4-(naphthalen-1-yl)-3-(thiophen-2-yl)carbonyl-1H-pyrrole] | 20 nM | 200 nM | > 10000 nM | 2 nM | – | – | – | –
N#Cc1ccc(Cn2cncc2Cn2cc(C(=O)c3ccsc3)c(-c3cccc4ccccc34)c2)cc1 [Compound 74] | 10 to 100 nM | 100 to 1000 nM | 10000 to 100000 nM | 10 nM | – | – | – | –
N#Cc1ccc(Cn2cncc2Cn2cc(C(=O)c3cccc(Br)c3)c(-c3cccc4ccccc34)c2)cc1 [Compound 76] | 100 to 10000 nM | 100 to 1000 nM | 10000 to 100000 nM | 4 nM | – | – | – | –
Cn1cnc(Cn2cc(C(=O)c3ccc(F)cc3)c(-c3cccc4ccccc34)c2)c1 [Compound 78, 3-(4-Fluorobenzoyl)-1-(1-methyl-1H-imidazol-4-yl)methyl-4-(naphthalen-1-yl)-1H-pyrrole] | 200 nM | 100 nM | 10000 to 100000 nM | 4.5 nM | – | – | – | –
Cn1cnc(Cn2cc(C(=O)c3ccc(Oc4ccccc4)cc3)c(-c3cccc4ccccc34)c2)c1 [Compound 79, 1-(1-Methyl-1H-imidazol-4-yl)methyl-4-(naphthalen-1-yl)-3-(4-phenoxybenzoyl)-1H-pyrrole] | 100 nM | 100 nM | > 50000 nM | 5 nM | – | – | – | –
COC(=O)[C@H](CCSC)NC(=O)c1cn(Cc2c[nH]cn2)cc1-c1cccc2ccccc12 [Compound 80, (S)-1-(1H-Imidazol-4-yl)methyl-3-[N-(1-methoxycarbonyl-3-methylthio)propyl]carbamoyl-4-(naphthalen-1-yl)-1H-pyrrole] | 100 to 10000 nM | 1000 to 50000 nM | 10000 to 100000 nM | 8210 nM | – | – | – | –
CSCC[C@H](NC(=O)c1cn(Cc2c[nH]cn2)cc1-c1cccc2ccccc12)C(=O)O [Compound 81, (S)-3-[N-(1-Hydroxycarbonyl-3-methylthio)propyl]carbamoyl-1-(1H-imidazol-4-yl)methyl-4-(naphthalen-1-yl)-1H-pyrrole] | 100 to 10000 nM | 1000 to 50000 nM | 10000 to 100000 nM | 680 nM | – | – | – | –
O=C(Nc1ccccc1)c1cn(Cc2c[nH]cn2)cc1-c1cccc2ccccc12 [Compound 82] | 100 to 10000 nM | 1000 to 50000 nM | 10000 to 100000 nM | 400 nM | – | – | – | –
O=C(NCc1ccccc1)c1cn(Cc2c[nH]cn2)cc1-c1cccc2ccccc12 [Compound 83] | 18500 nM | 1000 to 50000 nM | 10000 to 100000 nM | 260 nM | – | – | – | –
O=C(c1cn(Cc2c[nH]cn2)cc1-c1cccc2ccccc12)N1CCCCC1 [Compound 84] | 1830 nM | 1000 to 50000 nM | 10000 to 100000 nM | 720 nM | – | – | – | –
O=C(c1cn(Cc2c[nH]cn2)cc1-c1cccc2ccccc12)N1CCOCC1 [Compound 85] | 100 to 10000 nM | 4000 nM | > 50000 nM | 30 nM | – | – | – | –
O=C(c1cn(Cc2c[nH]cn2)cc1-c1cccc2ccccc12)N1CCSCC1 [Compound 86] | 100 to 10000 nM | 2000 nM | > 50000 nM | 30 nM | – | – | – | –
O=C(c1cn(Cc2c[nH]cn2)cc1-c1cccc2ccccc12)N1CCS(=O)(=O)CC1 [Compound 87] | 100 to 10000 nM | 1000 to 50000 nM | 10000 to 100000 nM | 60 nM | – | – | – | –
O=C(c1cn(Cc2c[nH]cn2)cc1-c1cccc2ccccc12)N1CCNCC1 [Compound 88] | 100 to 10000 nM | 1000 to 50000 nM | 10000 to 100000 nM | 600 nM | – | – | – | –
O=C(c1cn(Cc2c[nH]cn2)cc1-c1cccc2ccccc12)N1CCSC1 [Compound 90] | 100 to 10000 nM | 1000 to 50000 nM | 10000 to 100000 nM | 42.5 nM | – | – | – | –
